In this test the test system is Claviceps purpurea. In words: Field trials 2018 in Canada: foliar application at early flowering, sclerotia (ergot bodies) counted in harvested wheat grain. It counts as in vivo. The following applies: 75 grams/ha Pydiflumetofen, spring wheat (AC Goodeve) or durum wheat (AC Strongfield), crop per trial not stated. On the procedure: Pydiflumetofen as well as market standards were applied according to table 2 between Jul. 6-9, 2018 between BBCH stage 61-63 (early flowering). Assessment of sclerotia was conducted in fall 2018 on harvested grain samples. […] A mixture of Pydiflumetofen and Propiconazole is also available as a suspension concentrate 275 SC formulation (275 grams of total active ingredients) with 150 grams of Pydiflumetofen and 125 grams of Propiconazole per litre under the name […] be tested for reduction of sclerotia in cereals, in particular in spring wheat, winter wheat, durum, hybrid spring wheat, hybrid winter wheat, winter rye, spring rye, hybrid winter rye, hybrid spring rye, and […] plants.

In the case of `CON(C(=O)c1cn(C)nc1C(F)F)C(C)Cc1c(Cl)cc(Cl)cc1Cl` (stereo not drawn) [Pydiflumetofen, 3-(difluoromethyl)-N-methoxy-1-methyl-N-[1-methyl-2-(2,4,6-trichlorophenyl)ethyl]-1H-pyrazole-4-carboxamide], the “Trial No 1 number of Ergot bodies per kg seed” value (applied BBCH 61-63, untreated 0.5) is given as 0.5 per kg seed. Also, the “Trial No 3 number of Ergot bodies per kg seed” value (applied BBCH 61-63, untreated 1.3) is recorded as 0 per kg seed. For the setting “applied BBCH 61-63, untreated 2.3”, the “Trial No 2 number of Ergot bodies per kg seed” value is reported as 0.3 per kg seed.
